Test results from BindingDB's records for doi:10.1021/jm00154a024 (1986).

Test: The compound was tested for the inhibition of alanine racemase from Pseudomonas aeruginosa

CCC(=N)P(=O)(O)O
Ki: 8.5 mM
